Measurements published in article PMC6420870 (Neuropharmacology, 2019).
pIC50, pKi: −log10 of the molar value.

Assays:
Format in all cases: cell-based
[1] = target: T1, rat mGlu5 (HEK293A-rat mGlu5-low) (Rattus norvegicus, UniProt P31424); experiment: radioligand binding, intact adherent cells; settings: labelled compound, ~2 nM, RT, 1 h, pH 7.4; allosteric site
[2] = target: T1, rat mGlu5 (HEK293A-rat mGlu5-low); experiment: IP1 accumulation
[3] = target: T1, rat mGlu5 (HEK293A-rat mGlu5-low); experiment: [3H]methoxy-PEPy inhibition binding, intact adherent cells

T1 sequence (P31424 21-1203): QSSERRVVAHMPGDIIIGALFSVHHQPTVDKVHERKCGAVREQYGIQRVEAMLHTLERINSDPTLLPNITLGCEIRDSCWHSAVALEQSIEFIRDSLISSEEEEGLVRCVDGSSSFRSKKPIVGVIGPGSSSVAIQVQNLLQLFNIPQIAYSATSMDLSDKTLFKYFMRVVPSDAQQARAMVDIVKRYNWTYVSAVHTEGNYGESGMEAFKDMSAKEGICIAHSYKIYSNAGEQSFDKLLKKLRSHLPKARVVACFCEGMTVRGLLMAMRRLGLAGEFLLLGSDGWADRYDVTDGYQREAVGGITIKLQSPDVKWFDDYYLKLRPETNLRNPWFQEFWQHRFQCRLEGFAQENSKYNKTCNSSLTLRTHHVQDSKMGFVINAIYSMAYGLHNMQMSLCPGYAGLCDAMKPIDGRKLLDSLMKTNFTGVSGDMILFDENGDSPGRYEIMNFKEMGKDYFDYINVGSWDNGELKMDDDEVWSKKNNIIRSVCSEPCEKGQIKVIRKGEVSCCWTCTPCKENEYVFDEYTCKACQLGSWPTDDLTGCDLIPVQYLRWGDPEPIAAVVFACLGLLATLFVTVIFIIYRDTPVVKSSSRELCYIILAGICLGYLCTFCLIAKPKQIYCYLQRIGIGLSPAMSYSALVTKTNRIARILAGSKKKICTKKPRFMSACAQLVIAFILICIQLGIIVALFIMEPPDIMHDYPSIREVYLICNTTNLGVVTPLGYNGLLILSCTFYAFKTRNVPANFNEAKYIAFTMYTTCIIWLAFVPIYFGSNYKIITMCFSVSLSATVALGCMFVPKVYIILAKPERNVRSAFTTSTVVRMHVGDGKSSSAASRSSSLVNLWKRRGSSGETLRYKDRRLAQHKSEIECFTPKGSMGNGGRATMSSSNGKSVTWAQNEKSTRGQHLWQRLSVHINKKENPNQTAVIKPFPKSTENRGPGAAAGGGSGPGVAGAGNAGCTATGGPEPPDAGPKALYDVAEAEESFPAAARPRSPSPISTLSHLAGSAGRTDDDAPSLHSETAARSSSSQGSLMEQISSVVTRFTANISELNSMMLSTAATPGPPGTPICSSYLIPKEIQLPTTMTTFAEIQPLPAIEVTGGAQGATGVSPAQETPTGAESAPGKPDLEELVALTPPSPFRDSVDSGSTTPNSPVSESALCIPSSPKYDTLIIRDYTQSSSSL

Row | Structure (SMILES) | pIC50 [2] | pKi [3] | radioligand binding, intact adherent cells [1]
1 | COc1cncc(C#Cc2ccccn2)c1 [[^3H]methoxy-PEPy] |  |  | inhibition of [^3H]methoxy-PEPy binding was determined in HEK293A-rat mGlu5-low cells
2 | COc1cccc(C#Cc2ccc(C)cn2)c1 [M-5MPEP, 2-[2-(3-methoxyphenyl)ethynyl]-5-methylpyridine] | 6.53 | 7.13 | 
3 | CN1CC(=O)N=C1NC(=O)Nc1cccc(Cl)c1 [fenobam, 1-(3-chlorophenyl)-3-[(2e)-1-methyl-4-oxoimidazolidin-2-ylidene]urea] | 6.83 | 7.15 | 
4 | Fc1ccc2nc(CCC#Cc3ccccn3)cn2c1 [dipraglurant, 6-fluoro-2-[4-(2-pyridinyl)-3-butyn-1-yl]-Imidazo[1,2-a]pyridine] | 7.36 | 7.31 | 

Now from value to compound, other results behind:

Row | pIC50 [2] | pKi [3] | Structure (SMILES) | radioligand binding, intact adherent cells [1]
5 | 6.98 | 7.26 | N#Cc1cnc(Nc2nc3ccccc3o2)nc1-c1ccc(F)cc1 [VU0366058, 2-(1,3-benzoxazol-2-ylamino)-4-(4-fluorophenyl)pyrimidine-5-carbonitrile] | 
6 | 6.48 | 6.94 | N#Cc1cc(F)cc(C(=O)Nc2cccc(Cl)c2F)c1 [VU0366248, N-(3-chloro-2-fluorophenyl)-3-cyano-5-fluorobenzamide] | 
